SMILES strings stand for the structures. “And” between values parts separate entries of the source, which are not always exact repeats. Equal values may be shown once.

The subject of one series is WT mice (C57BL/6). The series is described as follows: Drug tolerability assessment (multiple ascending dose). It is filed as in vivo. As to conditions: for maximum tolerable dose: IP daily, multiple ascending dose, WT mice; for therapeutic safe dose in animals: both, C57BL/6, mouse. Here is the method:
3–4-mo-old WT mice (male and female, C57BL/6) were IP injected with starting doses of 10 mg/kg of BK40143 or BK40197 daily for 5 d before a 2-d washout period. […] BK40197 dosage was increased in 10 mg/kg increments for 5 d each until the maximum tolerable dose of 50 mg/kg was reached. All animal work was approved by GUACUC.

Another series addresses T1, CSF1R (Homo sapiens, UniProt P07333).
T1 construct: DNA label for qPCR read-out (T7 phage fusion or DNA tag); purchased Eurofins DiscoverX Corporation; host or cells: T7 phage in E. coli (BL21-derived) or HEK-293
Nature of the series: KINOMEscan competition binding, CSF1R. As to conditions: 10 µM compound; for remaining binding at 10 µM: lower = stronger binding, read-out: CSF1R %Ctrl @ 10000nM. Here is the method: (§1) The KINOMEscan screening platform (Eurofins DiscoverX Corporation) was performed using active site-directed competition binding assay to quantitatively measure interactions between BK40143 and BK40197 and more than 450 human kinases and disease relevant mutant variants. […] Screening “hits” are identified by measuring the amount of kinase captured in test (BK40143 and BK40197) versus control samples by using a quantitative and ultra-sensitive qRT-PCR method that detects the associated DNA label. BK40143 and BK40197 were screened at 10 µM concentration, and results for primary screen binding interactions were reported as “% Ctrl” (POC), where lower numbers indicate stronger hits and calculated as follows: [test compound signal−positive control signal/negative control signal−positive control signal]×100
(§2) negative control = DMSO (100% Ctrl)
(§3) positive control = control compound (0% Ctrl)
(§4) Based on screening data from of profiled compounds, a proportional relationship between primary screening results and corresponding compound/target affinities can be described as binding constants (Kd values) for the indicated ranges of POC values with tighter binding (higher affinity) interactions associated with lower POC values and weaker binding (lower affinity) associated with higher POC values. Briefly, kinase-tagged T7 phage strains were grown in parallel in 24-well blocks in an E. coli host derived from the BL21 strain. E. coli were grown to log-phase and infected with T7 phage from a frozen stock (multiplicity of infection = 0.4) and incubated with shaking at 32°C until lysis (90–150 min). The lysates were centrifuged (6,000g) and filtered (0.2 μm) to remove cell debris. The remaining kinases were produced in HEK-293 cells and subsequently tagged with DNA for qRT-PCR detection. Streptavidin-coated magnetic beads were treated with biotinylated small molecule ligands for 30 min at RT to generate affinity resins for kinase assays. The liganded beads were blocked with excess biotin and washed with blocking buffer (1% BSA, 0.05% Tween 20, 1 mM DTT; SeaBlock [Pierce]) to remove unbound ligand and to reduce non-specific phage binding. Binding reactions were assembled by combining kinases, liganded affinity beads, and test compounds in 1x binding buffer (20% 0.17x PBS, 0.05% Tween 20, 6 mM DTT; SeaBlock). Test compounds were prepared as 100x stocks in 100% DMSO and directly diluted into the assay. All reactions were performed in polypropylene 384-well plates in a final volume of 0.02 ml. The assay plates were incubated at RT with shaking for 1 h and the affinity beads were washed with wash buffer (1x PBS, 0.05% Tween 20). […] The kinase concentration in the eluates was measured by qRT-PCR.

In series [1] the test system is peripheral mast cells of TgAPP mice. Nature of the series: In vivo mast cell analysis (flow cytometry of whole blood, CD117 / FcεR1). Further details: species or system mouse; key to CD117 (single-labelled mast cells): % of single-labelled (CD117+) mast cells; CD117 Total: unit not given here. As to conditions: for ratio of immature-to-mature mast cells (c-KIT+ versus c-KIT+/FcεR1α+) in whole blood: TgAPP mice, BK40143 5 mg/kg, BK40197 45 mg/kg, 6 wk, vs DMSO. From the text:
c-KIT is responsible for mast cell development and homeostasis ([Lake et al, 1978]; [Linnekin, 1999]; [Kitamura et al, 2006]). TKs are the central driving force for processes leading to mast cell activation ([Parravicini et al, 2002]; [Gomez et al, 2005]). Multiple receptors are capable of mediating or modifying mast cell activation ([Kraft & Kinet, 2007]; [Kuehn & Gilfillan, 2007]), the major receptor responsible being FcεRI, the high affinity receptor for immunoglobulin E (IgE) ([Rivera & Gilfillan, 2006]). Mast cells are tissue-resident cells of hematopoietic lineage which are derived from CD13^+CD34^+KIT(CD117)^+ bone marrow pluripotent progenitors ([Kirshenbaum et al, 1999]). Although mast cells play an important role in the innate immune system ([Marshall, 2004]; [Galli et al, 2005]), these cells are also responsible for the detrimental exaggerated reactions to antigen ([Galli et al, 2008]) that follow the release of potent inflammatory mediators as a consequence of receptor-mediated mast cell activation ([Metcalfe et al, 1997]). The progression of these cells to fully mature mast cells is dependent on c-KIT activation which occurs because of stem cell factor-induced c-KIT dimerization and auto-phosphorylation ([Kirshenbaum et al, 1999]). To verify the functional effects of BK40143 and BK40197 on c-KIT inhibition, we investigated whether inhibition of c-KIT with BK40143 and BK40197 affects peripheral mast cell populations in vivo. We collected whole blood samples from Tg(SwDI) (referred to as TgAPP) mice treated with 5 or 45 mg/kg of each drug, respectively, or DMSO for 6 wk before isolating mast cells for analysis via flow cytometry (Fig 3A–C). Whole blood was sorted for mast cells using a triple gating strategy: 647 anti-CD45 to isolate leukocytes, PE anti-c-KIT to isolate mast cells, and APC/fire anti-FcεR1α to identify mature mast cells. The ratio of immature-to-mature mast cells (c-KIT+ versus c-KIT+/ FcεR1α+) was compared between c-KIT inhibited and DMSO-treated controls to determine the functional consequence of c-KIT inhibition on peripheral mast cell maturation.
Whole blood samples were harvested from the right ventricle of treated and untreated mice and added to 1,000 U/ml heparin-coated tubes to prevent coagulation. 100 μl of blood was then treated with three flow-conjugated antibodies: 647 anti-mouse CD45 (cat. #103123; BioLegend), PE anti-mouse CD117 (c-KIT) (cat. # 105807; BioLegend), and APC/fire 750 anti-mouse FcεR1α (cat. #134339; BioLegend) for 30 min, then treated with 1x RBC lysis buffer (cat. #420301; BioLegend) for 20 min. Cells were washed and resuspended in cell staining buffer before being analyzed on a Becton Dickinson LSRFortessas flow cytometer. Immature-to-mature mast cell ratio was calculated by dividing the percentage of single-labelled (CD117+) mast cells by the total number of c-KIT expressing cells (CD117+ plus CD117+ FcεR1+). All animal work was approved by Georgetown University Animal Care and Use Committee (GUACUC).
In general terms: Flow cytometry measures light scatter and fluorescence of single cells or particles in a stream.

The next series deals with T2, p-ABL1 (Homo sapiens, UniProt P00519).
T2 construct: DNA label for qPCR read-out (T7 phage fusion or DNA tag); purchased Eurofins DiscoverX Corporation; host or cells: T7 phage in E. coli (BL21-derived) or HEK-293
Nature of the series: KINOMEscan competition binding, p-ABL1. As to conditions: 10 µM compound; for remaining binding at 10 µM: lower = stronger binding, read-out: p-ABL1 %Ctrl @ 10000nM (POC). Here is the method:
as §1, §2, §3, §4

Where [2] appears, read: 5mg/kg, whole blood, individual mice.

T1 sequence (P07333 20-972): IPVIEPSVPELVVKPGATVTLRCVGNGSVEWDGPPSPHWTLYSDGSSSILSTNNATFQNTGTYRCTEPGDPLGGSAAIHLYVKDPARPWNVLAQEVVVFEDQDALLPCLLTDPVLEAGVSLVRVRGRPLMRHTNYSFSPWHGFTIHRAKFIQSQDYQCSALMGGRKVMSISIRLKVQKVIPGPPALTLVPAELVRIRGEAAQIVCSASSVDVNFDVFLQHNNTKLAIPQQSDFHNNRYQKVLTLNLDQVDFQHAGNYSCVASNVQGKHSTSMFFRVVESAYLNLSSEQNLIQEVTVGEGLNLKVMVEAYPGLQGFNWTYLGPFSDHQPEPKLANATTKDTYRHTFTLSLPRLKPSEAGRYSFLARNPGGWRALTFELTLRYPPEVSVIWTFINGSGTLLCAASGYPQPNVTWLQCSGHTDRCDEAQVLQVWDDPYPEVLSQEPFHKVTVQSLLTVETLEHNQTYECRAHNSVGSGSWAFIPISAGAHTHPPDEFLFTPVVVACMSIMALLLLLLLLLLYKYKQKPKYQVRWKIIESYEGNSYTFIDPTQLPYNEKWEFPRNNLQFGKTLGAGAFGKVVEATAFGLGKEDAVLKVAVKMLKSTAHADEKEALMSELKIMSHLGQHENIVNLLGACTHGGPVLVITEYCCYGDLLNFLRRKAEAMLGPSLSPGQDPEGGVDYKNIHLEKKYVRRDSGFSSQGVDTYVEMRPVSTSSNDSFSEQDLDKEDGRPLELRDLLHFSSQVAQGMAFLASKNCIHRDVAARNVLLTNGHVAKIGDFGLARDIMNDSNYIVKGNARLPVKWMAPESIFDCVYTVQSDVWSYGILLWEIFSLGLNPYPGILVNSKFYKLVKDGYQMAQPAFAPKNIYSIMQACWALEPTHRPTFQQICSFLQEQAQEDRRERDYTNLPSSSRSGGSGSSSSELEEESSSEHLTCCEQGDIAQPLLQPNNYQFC
T2 sequence (P00519 whole entry, the tested form may be a part): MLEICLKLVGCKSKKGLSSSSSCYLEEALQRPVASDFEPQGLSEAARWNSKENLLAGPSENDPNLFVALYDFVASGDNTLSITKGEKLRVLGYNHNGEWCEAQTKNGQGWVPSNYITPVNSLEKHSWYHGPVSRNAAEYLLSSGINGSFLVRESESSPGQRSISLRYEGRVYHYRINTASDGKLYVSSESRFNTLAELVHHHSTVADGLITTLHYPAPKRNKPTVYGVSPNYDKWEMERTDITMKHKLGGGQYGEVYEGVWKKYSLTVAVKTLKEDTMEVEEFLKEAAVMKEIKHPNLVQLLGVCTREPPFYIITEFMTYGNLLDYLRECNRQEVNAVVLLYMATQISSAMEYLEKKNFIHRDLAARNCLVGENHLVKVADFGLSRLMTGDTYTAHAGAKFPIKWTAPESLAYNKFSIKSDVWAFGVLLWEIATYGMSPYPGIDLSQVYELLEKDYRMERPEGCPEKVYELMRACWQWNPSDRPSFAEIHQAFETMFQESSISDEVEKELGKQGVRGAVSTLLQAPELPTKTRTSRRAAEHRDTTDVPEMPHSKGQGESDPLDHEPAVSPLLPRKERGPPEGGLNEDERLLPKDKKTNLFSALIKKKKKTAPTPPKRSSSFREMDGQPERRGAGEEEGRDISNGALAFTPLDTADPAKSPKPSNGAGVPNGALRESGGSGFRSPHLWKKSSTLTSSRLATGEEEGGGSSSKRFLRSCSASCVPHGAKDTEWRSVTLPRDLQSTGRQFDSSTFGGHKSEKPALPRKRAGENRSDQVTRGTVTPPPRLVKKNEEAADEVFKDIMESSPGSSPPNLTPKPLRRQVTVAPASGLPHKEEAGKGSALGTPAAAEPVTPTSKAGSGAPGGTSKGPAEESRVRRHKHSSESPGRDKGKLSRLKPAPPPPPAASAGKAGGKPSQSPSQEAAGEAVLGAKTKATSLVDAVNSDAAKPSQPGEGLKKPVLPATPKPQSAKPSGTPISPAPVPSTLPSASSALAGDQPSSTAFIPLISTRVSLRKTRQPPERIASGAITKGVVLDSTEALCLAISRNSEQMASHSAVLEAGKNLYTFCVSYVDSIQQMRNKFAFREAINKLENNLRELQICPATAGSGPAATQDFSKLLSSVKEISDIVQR

As a reminder, the inhibition is the drop in the measured response relative to a control, in per cent. For the compound `Cc1cccc(-c2cc3nccc(Nc4ccccc4)c3s2)c1` [BK40143], in the series on WT mice (C57BL/6), the maximum tolerable dose is listed as 7.5 mg/kg. The “therapeutic safe dose in animals” value in the series on WT mice (C57BL/6) (in vivo) is on record as “up to 7.5 mg/kg”. In addition, in the series with WT mice (C57BL/6) (mouse, in vivo), the “tolerability at starting dose” value is recorded as “rodent mortality”. At CSF1R, the inhibition at 10 µM is 62% and the remaining binding at 10 µM stood at 38%. Also, in series [1] (setting [2]), the “CD117 (single-labelled mast cells)” value was 1.06 and 0.7 and 1.08 and 1.14 and 0.83 and 6.55 and 2.98; the “CD117 / Total (immature-to-mature mast cell ratio)” value was 0.9815 and 0.9589 and 0.9231 and 0.9661 and 0.9881 and 0.9278 and 0.9141; the “CD117/FcER1 (double-labelled mast cells)” value is 0.02 and 0.03 and 0.09 and 0.04 and 0.01 and 0.51 and 0.28; the “CD117 Total” value was 1.08 and 0.73 and 1.17 and 1.18 and 0.84 and 7.06 and 3.26. In addition, the “ratio of immature-to-mature mast cells (c-KIT+ versus c-KIT+/FcεR1α+) in whole blood” value in series [1] is listed as “significantly greater ratio of immature-to-mature mast cells”. Further, at p-ABL1, 10 µM produced 97.5% inhibition and the remaining binding at 10 µM was 2.5%.
`Cc1cccc(-c2cc3nccc(N4CCOCC4)c3s2)c1` [BK40197] had a maximum tolerable dose with WT mice (C57BL/6) of 45 mg/kg. In addition, in the series with WT mice (C57BL/6) (in vivo), the “therapeutic safe dose in animals” value is no more than 45 mg/kg. In addition, on CSF1R, at 10 µM the inhibition was 77% and the remaining binding at 10 µM stood at 23%. The “ratio of immature-to-mature mast cells (c-KIT+ versus c-KIT+/FcεR1α+) in whole blood” value in series [1] was “not statistically significant (P = 0.07) increase in immature-to-mature mast cell ratio”. For the same compound, at p-ABL1, 10 µM produced 63% inhibition and the remaining binding at 10 µM was found to be 37%.

Source of the values: PMC11249953, “c-KIT inhibitors reduce pathology and improve behavior in the Tg(SwDI) model of Alzheimer’s disease” (Life Science Alliance, 2024).
